Assay results from ChEMBL document CHEMBL4513161, “CO-ADD screening of MMV (CH) - Pandemic Response Box” (2021).
Converted amounts (≈) assume the structure as drawn.

Key:
HEK293 = assay: cells; assay type: functional, Homo sapiens, ATCC CRL1573; conditions: Homo sapiens, ATCC CRL1573, HEK293; ASSAY_TEST Inhibition of Cell Viability; detection method Resazurin; Fluorescence (ex560/em590); MEDIA DMEM with 10% FBS; plate type 384well; TC; CORNING #3712; time 18 hr; read-out: CC50
Pseudomonas aeruginosa [1] = assay: microbe, parasite or virus in culture; conditions: ATCC 27853, 18 h, ASSAY_TEST Inhibition of Bacterial Growth, detection method Absorption (OD600), MEDIA CAMHB, plate type 384well, NBS, CORNING #3640
Description: Antibacterial activity against Pseudomonas aeruginosa ATCC 27853 (CO-ADD:GN_042); MIC in CAMBH media using NBS plates, by OD(600)

Pseudomonas aeruginosa [2] = assay: Antibacterial activity against Pseudomonas aeruginosa PAO397 [PAO1 d(mexAB-oprM) d(mexCD-oprJ) d(mexEF-oprN) d(mexJKL) d(mexXY) d(opmH)] (CO-ADD:GN_211); MIC in CAMBH media using NBS plates, by OD(600); assay type: functional; conditions: ASSAY_TEST Inhibition of Bacterial Growth, detection method Absorption (OD600), MEDIA CAMHB, plate type 384well, CORNING #3640, time 18 hr
Escherichia coli = assay: microbe, parasite or virus in culture; conditions: ATCC 25922, 18 h, ASSAY_TEST Inhibition of Bacterial Growth, detection method Absorption (OD600), MEDIA CAMHB, plate type 384well, NBS, CORNING #3640
Description: Antibacterial activity against Escherichia coli ATCC 25922 (CO-ADD:GN_001); MIC in CAMBH media using NBS plates, by OD(600)

Acinetobacter baumannii = assay: microbe, parasite or virus in culture; conditions: ATCC 19606, 18 h, ASSAY_TEST Inhibition of Bacterial Growth, detection method Absorption (OD600), MEDIA CAMHB, plate type 384well, NBS, CORNING #3640
Description: Antibacterial activity against Acinetobacter baumannii ATCC 19606 (CO-ADD:GN_034); MIC in CAMBH media using NBS plates, by OD600

Staphylococcus aureus = assay: microbe, parasite or virus in culture; conditions: ATCC 43300, 18 h, ASSAY_TEST Inhibition of Bacterial Growth, detection method Absorption (OD600), MEDIA CAMHB, plate type 384well, NBS, CORNING #3640
Description: Antibacterial activity against Staphylococcus aureus MRSA ATCC 43300 (CO-ADD:GP_020); MIC in CAMBH media, using NBS plates, by OD(600)

Candida albicans = assay: microbe, parasite or virus in culture; conditions: ATCC 90028, ASSAY_TEST Inhibition of Fungal Growth, detection method Absorption (OD530), plate type 384well, NBS, CORNING #3640
Description: Antifungal activity against Candida albicans ATCC 90028 (CO-ADD:FG_001); MIC in YNB media using NBS plates, by OD630

Klebsiella pneumoniae = assay: microbe, parasite or virus in culture; conditions: ATCC 700603, 18 h, ASSAY_TEST Inhibition of Bacterial Growth, detection method Absorption (OD600), MEDIA CAMHB, plate type 384well, NBS, CORNING #3640
Description: Antibacterial activity against Klebsiella pneumoniae MDR ATCC 70063 (CO-ADD:GN_003); MIC in CAMBH media using NBS plates, by OD(600)

Description for Cryptococcus neoformans: Antifungal activity against Cryptococcus neoformans H99 ATCC 208821 (CO-ADD:FG_002); MIC in YNB media using NBS plates, by Resazurin OD(600-570)

SMILES	CC50 (HEK293)	MIC (Pseudomonas aeruginosa [1])	MIC (Cryptococcus neoformans)	MIC (Pseudomonas aeruginosa [2])	MIC (Escherichia coli)	MIC (Acinetobacter baumannii)	MIC (Staphylococcus aureus)	MIC (Candida albicans)	MIC (Klebsiella pneumoniae)
Nc1nc(N)c2c(Sc3ccccc3)cccc2n1	10.8 µM	> 20 µM	> 20 µM	> 20 µM	> 20 µM	> 20 µM	> 20 µM	> 20 µM	> 20 µM
O=S(=O)(NCB(O)O)c1cc2c(Cl)ccc(Cl)c2s1	> 20 µM	> 20 µM	> 20 µM	> 20 µM	> 20 µM	> 20 µM	10 µM (≈ 3.4 µg/mL)	> 20 µM	> 20 µM
Clc1cc2nc(C3CCNCC3)n(Cc3ccc(CNCCc4c[nH]cn4)cc3)c2cc1Cl	> 20 µM	> 20 µM	> 20 µM	> 20 µM	> 20 µM	> 20 µM	> 20 µM	> 20 µM	> 20 µM
O=C(CP(=O)(O)O)NCCc1cccc(Oc2ccccc2)c1	> 20 µM	> 20 µM	> 20 µM	> 20 µM	> 20 µM	> 20 µM	> 20 µM	> 20 µM	> 20 µM
Nc1cccc(-c2nc(N)nc(NC3Cc4ccccc4C3)n2)c1	> 20 µM	> 20 µM	> 20 µM	> 20 µM	> 20 µM	> 20 µM	> 20 µM	> 20 µM	> 20 µM
O=C(NCc1ccccc1Cl)c1cnc2ccccc2n1	> 20 µM	> 20 µM	> 20 µM	> 20 µM	> 20 µM	> 20 µM	> 20 µM	> 20 µM	> 20 µM
C=C(C)n1c(=O)n(Cc2ccccc2C)c2ccccc21	> 20 µM	> 20 µM	> 20 µM	> 20 µM	> 20 µM	> 20 µM	> 20 µM	> 20 µM	> 20 µM
Nc1nnc(-c2ccc(Cl)cc2)s1	> 20 µM	> 20 µM	> 20 µM	> 20 µM	> 20 µM	> 20 µM	> 20 µM	> 20 µM	> 20 µM
O=C(NCc1cccc2ccccc12)c1cccs1	> 20 µM	> 20 µM	> 20 µM	> 20 µM	> 20 µM	> 20 µM	> 20 µM	> 20 µM	> 20 µM
O=C(O)c1ccccc1Sc1ncnc2sc3c(c12)CCC3	> 20 µM	> 20 µM	> 20 µM	> 20 µM	> 20 µM	> 20 µM	> 20 µM	> 20 µM	> 20 µM
NS(=O)(=O)c1ccc(NC(=O)NC(c2ccccc2)c2ccccc2)cc1	> 20 µM	> 20 µM	> 20 µM	> 20 µM	> 20 µM	> 20 µM	> 20 µM	> 20 µM	> 20 µM
CCCCOC(=O)Nc1cc2nc(C3CCCCC3)[nH]c2cc1N(CC)CC	> 20 µM	> 20 µM	> 20 µM	> 20 µM	> 20 µM	> 20 µM	> 20 µM	> 20 µM	> 20 µM
O=C(Nc1ccccc1C(=O)O)c1cccc(Oc2ccccc2)c1	> 20 µM	> 20 µM	> 20 µM	> 20 µM	> 20 µM	> 20 µM	> 20 µM	> 20 µM	> 20 µM
CCCCCCCCC(CP(=O)(O)C(C)N)C(=O)O (stereo not given)	> 20 µM	> 20 µM	> 20 µM	> 20 µM	> 20 µM	> 20 µM	> 20 µM	> 20 µM	> 20 µM
CCc1cc(Nc2cc(=O)n(CCN3CCN(C(=O)c4ccccc4)CC3)c(=O)[nH]2)ccc1C	> 20 µM	> 20 µM	> 20 µM	> 20 µM	> 20 µM	> 20 µM	> 20 µM	> 20 µM	> 20 µM
NC(=O)c1cnc2ccc(S(=O)(=O)c3ccccc3)cc2c1Nc1ccc(O)cc1	> 20 µM	> 20 µM	> 20 µM	> 20 µM	> 20 µM	> 20 µM	> 20 µM	> 20 µM	> 20 µM
NC(=O)c1ccccc1NC(=O)c1ccc(C(=O)Nc2ccccc2C(N)=O)cc1	> 20 µM	> 20 µM	> 20 µM	> 20 µM	> 20 µM	> 20 µM	> 20 µM	> 20 µM	> 20 µM
C(=C\c1nc2ccccc2[nH]1)/c1ccc2c(c1)OCO2	> 20 µM	> 20 µM	> 20 µM	> 20 µM	> 20 µM	> 20 µM	> 20 µM	> 20 µM	> 20 µM
COc1ccc2cc3[n+](cc2c1OCCN(CCn1cncn1)Cc1ccc(F)cc1F)CCc1cc2c(cc1-3)OCO2	> 20 µM	> 20 µM	> 20 µM	> 20 µM	> 20 µM	> 20 µM	> 20 µM	> 20 µM	> 20 µM
CCCCCCCc1[nH]c2ccccc2c(=O)c1O	> 20 µM	> 20 µM	> 20 µM	> 20 µM	> 20 µM	> 20 µM	> 20 µM	> 20 µM	> 20 µM
COc1ccc(NC(=O)CC2Sc3ncnn3C2=O)cc1 (stereo not given)	19.5 µM	> 20 µM	20 µM (≈ 6.09 µg/mL)	> 20 µM	> 20 µM	> 20 µM	> 20 µM	> 20 µM	> 20 µM
CC(C)(C)OC(=O)NCc1ccc(C(=O)N[C@H]2CCOC2=O)cc1	> 20 µM	> 20 µM	> 20 µM	> 20 µM	> 20 µM	> 20 µM	> 20 µM	> 20 µM	> 20 µM
O=c1cc(OCc2ccccc2)ccn1Cc1ccccc1	> 20 µM	> 20 µM	> 20 µM	> 20 µM	> 20 µM	> 20 µM	> 20 µM	> 20 µM	> 20 µM
O=[N+]([O-])c1ccc2c(CCc3c[nH]c4ccccc34)c[nH]c2c1	> 20 µM	> 20 µM	> 20 µM	> 20 µM	> 20 µM	> 20 µM	> 20 µM	> 20 µM	> 20 µM
COc1cc(Cc2cc(N)nc(N)n2)cc(OC)c1OC	> 20 µM	20 µM (≈ 5.81 µg/mL)	> 20 µM	5 µM (≈ 1.45 µg/mL)	2.5 µM (≈ 0.726 µg/mL)	> 20 µM	5 µM (≈ 1.45 µg/mL)	> 20 µM	10 µM (≈ 2.9 µg/mL)
CSC[C@H]1CN(Cc2c[nH]c3c(N)ncnc23)C[C@@H]1O	> 20 µM	> 20 µM	> 20 µM	> 20 µM	> 20 µM	> 20 µM	> 20 µM	> 20 µM	> 20 µM
O=C(Nc1ccc(Cl)c(C(F)(F)F)c1)C(CCCl)C(=O)Nc1ccc(Cl)c(C(F)(F)F)c1	> 20 µM	> 20 µM	> 20 µM	> 20 µM	> 20 µM	> 20 µM	> 20 µM	> 20 µM	> 20 µM
NCCCc1ccccc1C(=O)Nc1ncc([N+](=O)O)s1	> 20 µM	> 20 µM	> 20 µM	> 20 µM	> 20 µM	> 20 µM	> 20 µM	> 20 µM	> 20 µM
NC(=O)[C@@H]1CC[C@@H]2CN1C(=O)N2OS(=O)(=O)O	> 20 µM	> 20 µM	> 20 µM	> 20 µM	> 20 µM	> 20 µM	> 20 µM	> 20 µM	> 20 µM
CCN(CC)S(=O)(=O)c1ccc(Cl)c(C(=O)Nc2sc3c(c2C#N)CCCC3)c1	> 20 µM	> 20 µM	> 20 µM	> 20 µM	> 20 µM	> 20 µM	> 20 µM	> 20 µM	> 20 µM
